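Grown in 96-well plates, cells were treated for 48 hours with each compound at five concentrations. Insufficient inhibition: endpoint recorded as highest concentration tested. GI50: concentration for 50% inhibition of growth.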 Active and inactive are the calls of the source. Cut-off read from the data, not from the text of the source: active = GI50 up to about 1.1 µM and inactive = higher.
Columns and labels:
Experiment in all cases: NCI anticancer screen, dose series, 48 h
[1] = test system: NCI/ADR-RES
[2] = test system: SR
[3] = test system: MDA-MB-435
[4] = test system: OVCAR-5
[5] = test system: HL-60
[6] = test system: SK-MEL-2
[7] = test system: HT-29
[8] = test system: SF-539
[9] = test system: SF-295
[10] = test system: SN12C
[11] = test system: COLO 205
[12] = test system: EKVX
[13] = test system: HOP-62
[14] = test system: HCC 2998
[15] = test system: ACHN
[16] = test system: SNB-19
[17] = test system: OVCAR-8
[18] = test system: 786-0
[19] = test system: CCRF-CEM

Structure (SMILES) | GI50 [1] | GI50 [2] | GI50 [3] | GI50 [4] | GI50 [5] | GI50 [6] | GI50 [7] | GI50 [8] | GI50 [9] | GI50 [10] | GI50 [11] | GI50 [12] | GI50 [13] | GI50 [14] | GI50 [15] | GI50 [16] | GI50 [17] | GI50 [18] | GI50 [19]
Nc1nc(-c2ccccc2)c(-c2ccccc2)c(-c2nc(N)nc(-c3ccccc3)c2-c2ccccc2)n1 | > 100 µM (inactive) | > 100 µM (inactive) | > 100 µM (inactive) | > 100 µM (inactive) | > 100 µM (inactive) | > 100 µM (inactive) | 62.1 µM (inactive) | > 100 µM (inactive) | 78.9 µM (inactive) | > 100 µM (inactive) | > 100 µM (inactive) | 63.7 µM (inactive) | > 100 µM (inactive) | 49 µM (inactive) | > 100 µM (inactive) | > 100 µM (inactive) | > 100 µM (inactive) | > 100 µM (inactive) | –
CC1=CC(=O)CC(C)(C)C1(O)/C=C/C(C)=C/C(=O)O (stereo not drawn) | > 100 µM (inactive) | > 100 µM (inactive) | > 100 µM (inactive) | > 100 µM (inactive) | > 100 µM (inactive) | > 100 µM (inactive) | > 100 µM (inactive) | > 100 µM (inactive) | > 100 µM (inactive) | > 100 µM (inactive) | > 100 µM (inactive) | > 100 µM (inactive) | > 100 µM (inactive) | > 100 µM (inactive) | > 100 µM (inactive) | > 100 µM (inactive) | > 100 µM (inactive) | > 100 µM (inactive) | > 100 µM (inactive)
O=c1[nH]nc(-c2ccccc2)n1/N=C/c1ccc([N+](=O)[O-])cc1 | 20.1 µM (inactive) | > 100 µM (inactive) | > 100 µM (inactive) | > 100 µM (inactive) | > 100 µM (inactive) | 19.1 µM (inactive) | > 100 µM (inactive) | 17.1 µM (inactive) | 27.2 µM (inactive) | > 62.1 µM (inactive) | > 100 µM (inactive) | > 80.4 µM (inactive) | 11 µM (inactive) | > 45.4 µM (inactive) | 11.4 µM (inactive) | 7.78 µM (inactive) | 10.2 µM (inactive) | 6.64 µM (inactive) | > 100 µM (inactive)
COCCOC1=CC(=O)c2c(O)ccc(O)c2C1=O | 2.44 µM (inactive) | 5.01 µM (inactive) | 0.179 µM (active) | 1.61 µM (inactive) | 0.52 µM (active) | 1.27 µM (inactive) | 0.585 µM (active) | 1.73 µM (inactive) | 1.69 µM (inactive) | 1.63 µM (inactive) | 0.284 µM (active) | 2.14 µM (inactive) | 0.724 µM (active) | 2.17 µM (inactive) | 1.87 µM (inactive) | 2.3 µM (inactive) | 1.73 µM (inactive) | 1.64 µM (inactive) | 4.3 µM (inactive)
Cc1sc2nc3n(c(=O)c2c1C)N=C(c1ccc(Cl)cc1)CS3 | > 100 µM (inactive) | > 100 µM (inactive) | > 100 µM (inactive) | > 100 µM (inactive) | > 100 µM (inactive) | – | > 100 µM (inactive) | > 100 µM (inactive) | > 100 µM (inactive) | > 100 µM (inactive) | > 100 µM (inactive) | > 100 µM (inactive) | 66.1 µM (inactive) | > 100 µM (inactive) | > 100 µM (inactive) | – | > 100 µM (inactive) | > 100 µM (inactive) | > 100 µM (inactive)
O=C1C2=Nc3ccccc3C(O)(C(=O)O)N2c2ccccc21 (stereo not drawn) | 29.6 µM (inactive) | 14.6 µM (inactive) | 2.26 µM (inactive) | 34.8 µM (inactive) | 10.7 µM (inactive) | 13.3 µM (inactive) | 21.2 µM (inactive) | 26.4 µM (inactive) | 17.2 µM (inactive) | 28.8 µM (inactive) | 16.4 µM (inactive) | 60.7 µM (inactive) | 25.4 µM (inactive) | 45.2 µM (inactive) | 26.5 µM (inactive) | – | 17.5 µM (inactive) | 36.5 µM (inactive) | 21.9 µM (inactive)
CC(C)NC(=O)OCc1c(COC(=O)NC(C)C)c(-c2cc[n+](COC(=O)C(C)C)cc2)n2c1CCC2 | > 100 µM (inactive) | > 25.2 µM (inactive) | > 100 µM (inactive) | > 100 µM (inactive) | 27.8 µM (inactive) | > 100 µM (inactive) | > 100 µM (inactive) | 17.7 µM (inactive) | > 83.2 µM (inactive) | 62.1 µM (inactive) | > 100 µM (inactive) | > 100 µM (inactive) | > 68.4 µM (inactive) | > 100 µM (inactive) | 12.2 µM (inactive) | > 100 µM (inactive) | > 100 µM (inactive) | 28 µM (inactive) | 39.9 µM (inactive)
CSCCCN(CCCSC)CCCSC | > 100 µM (inactive) | 10.6 µM (inactive) | 55.6 µM (inactive) | > 100 µM (inactive) | 13.5 µM (inactive) | – | > 100 µM (inactive) | > 100 µM (inactive) | > 100 µM (inactive) | > 100 µM (inactive) | > 100 µM (inactive) | > 100 µM (inactive) | > 100 µM (inactive) | > 100 µM (inactive) | – | > 100 µM (inactive) | > 100 µM (inactive) | > 100 µM (inactive) | 35.5 µM (inactive)
c1ccc(C(/C(=N/c2ccc(Cc3ccc(/N=C(\C(c4ccccc4)c4ccccc4)N4CC4)cc3)cc2)N2CC2)c2ccccc2)cc1 | 9.25 µM (inactive) | 1.31 µM (inactive) | 8.73 µM (inactive) | 11.5 µM (inactive) | 4.23 µM (inactive) | 7.01 µM (inactive) | 3.1 µM (inactive) | 16.3 µM (inactive) | 9.31 µM (inactive) | 14.3 µM (inactive) | 3.27 µM (inactive) | 10.1 µM (inactive) | 12.8 µM (inactive) | 10.1 µM (inactive) | 5.82 µM (inactive) | 13.1 µM (inactive) | 10.7 µM (inactive) | 14.8 µM (inactive) | 3.18 µM (inactive)
CC(=O)O[C@H]1CC[C@@]2(C)C(=CC[C@@H]3[C@@H]2CC[C@]2(C)C(=N/O)/C(=C\c4ccccc4)C[C@@H]32)C1 | 7.08 µM (inactive) | 3.27 µM (inactive) | 3.89 µM (inactive) | 17.1 µM (inactive) | 14.5 µM (inactive) | 13 µM (inactive) | 3.99 µM (inactive) | 15.9 µM (inactive) | 14.8 µM (inactive) | 14.8 µM (inactive) | 10.6 µM (inactive) | 4.86 µM (inactive) | 16.7 µM (inactive) | 11.9 µM (inactive) | 23.6 µM (inactive) | > 55 µM (inactive) | 9.71 µM (inactive) | 13.9 µM (inactive) | 17.7 µM (inactive)
O=S(=O)(O)c1ccc(/N=N/c2ccc(/N=N/c3c(O)ccc4ccccc34)cc2)cc1 | > 100 µM (inactive) | 4.76 µM (inactive) | > 100 µM (inactive) | > 100 µM (inactive) | 0.893 µM (active) | > 100 µM (inactive) | > 100 µM (inactive) | – | > 100 µM (inactive) | > 100 µM (inactive) | > 100 µM (inactive) | > 100 µM (inactive) | > 100 µM (inactive) | > 100 µM (inactive) | > 100 µM (inactive) | > 100 µM (inactive) | > 100 µM (inactive) | > 100 µM (inactive) | > 51.3 µM (inactive)
COC(=O)NN(C(=O)OC)c1c(-c2ccccc2)nc(SC)n1N | > 100 µM (inactive) | > 100 µM (inactive) | > 100 µM (inactive) | > 100 µM (inactive) | > 100 µM (inactive) | > 100 µM (inactive) | – | > 100 µM (inactive) | > 100 µM (inactive) | > 100 µM (inactive) | > 100 µM (inactive) | > 100 µM (inactive) | > 100 µM (inactive) | > 100 µM (inactive) | > 100 µM (inactive) | > 100 µM (inactive) | > 100 µM (inactive) | > 100 µM (inactive) | > 100 µM (inactive)
O=S(=O)(Nc1nc2ccccc2nc1N1CCCCCC1)c1ccccc1 | 25.8 µM (inactive) | 25.3 µM (inactive) | 23 µM (inactive) | 57.3 µM (inactive) | 23.2 µM (inactive) | 16.3 µM (inactive) | 27.6 µM (inactive) | 29.2 µM (inactive) | 24.1 µM (inactive) | > 100 µM (inactive) | > 100 µM (inactive) | 24.5 µM (inactive) | 23 µM (inactive) | 11.8 µM (inactive) | 21.1 µM (inactive) | 28.2 µM (inactive) | 29 µM (inactive) | > 100 µM (inactive) | 34.5 µM (inactive)
N#CC(C#N)/N=N/c1ccc(-c2nc3ccccc3o2)cc1 | 17.5 µM (inactive) | 16.2 µM (inactive) | 16.5 µM (inactive) | 17.4 µM (inactive) | 5.48 µM (inactive) | 12.4 µM (inactive) | 12.8 µM (inactive) | 12.2 µM (inactive) | – | 13.2 µM (inactive) | 11.7 µM (inactive) | 11.7 µM (inactive) | 16.6 µM (inactive) | 1.22 µM (inactive) | 12.9 µM (inactive) | 24.7 µM (inactive) | 23.6 µM (inactive) | 14.4 µM (inactive) | –
O=C1NC(S(=O)(=O)O)=NNC12c1ccccc1-c1ccccc12 | > 10 µM (inactive) | > 10 µM (inactive) | > 10 µM (inactive) | – | > 10 µM (inactive) | – | > 10 µM (inactive) | > 10 µM (inactive) | > 10 µM (inactive) | > 10 µM (inactive) | > 10 µM (inactive) | > 10 µM (inactive) | > 10 µM (inactive) | > 10 µM (inactive) | > 10 µM (inactive) | > 10 µM (inactive) | > 10 µM (inactive) | > 10 µM (inactive) | > 10 µM (inactive)
